In brackets after ≈: the same amount, converted by molar mass. Like-named read-outs stand apart in the source and are kept apart here.
How the values were obtained:
VAC = conditions: cited from earlier work
VAR isolate Jee = assay: organism not typed; type: cell-based, variola; conditions: Vero, read-out: IC50, VAR isolate Jee
VAR isolate 102 = assay: organism not typed; type: cell-based, variola; conditions: Vero, read-out: IC50, VAR isolate 102
[1] = tested on: VAR-YAM (1946 Japan Yamada isolate of VAR major); assay: organism not typed; type: cell-based, variola major
VAR isolate Harper = assay: organism not typed; type: cell-based, variola; conditions: Vero, read-out: IC50, VAR isolate Harper
[2] = tested on: MPX Zaire (V79-1-005-Scab); assay: organism not typed; type: cell-based, monkeypox; conditions: for IC50: Vero
VAR isolate Iran 2602 = assay: organism not typed; type: cell-based, variola; conditions: Vero, read-out: IC50, VAR isolate Iran 2602
VAR isolate Minn124 = assay: organism not typed; type: cell-based, variola minor; conditions: Vero, read-out: IC50, VAR isolate Minn124
[3] = tested on: VAR-YAM (1946 Japan Yamada isolate of VAR major); assay: organism not typed; type: cell-based, variola major; conditions: for IC50: Vero
VAR isolate Eth17 = assay: organism not typed; type: cell-based, variola; conditions: Vero, read-out: IC50, VAR isolate Eth17
VAR isolate Rafig Lahore = assay: organism not typed; type: cell-based, variola; conditions: Vero, read-out: IC50, VAR isolate Rafig Lahore
[4] = tested on: VAR-BSH (1975 Bangladesh isolate of VAR major); assay: organism not typed; type: cell-based, variola major; conditions: for IC50: Vero
VAR isolate V70-222 = assay: organism not typed; type: cell-based, variola; conditions: Vero, read-out: IC50, VAR isolate V70-222
CPX = conditions: cited from earlier work
VAR isolate 7124 = assay: organism not typed; type: cell-based, variola; conditions: Vero, read-out: IC50, VAR isolate 7124
VAC Copenhagen = assay: microbe, parasite or virus in culture; type: cell-based, vaccinia virus
[5] = tested on: orthopoxviruses (VAR-BSH, VAR-YAM, VAR-GAR, MPX, CPX, VAC); assay: organism not typed; type: cell-based
VAR isolate Higgins = assay: organism not typed; type: cell-based, variola; conditions: Vero, read-out: IC50, VAR isolate Higgins
CPX Brighton [6] = assay: organism not typed; type: cell-based, cowpox; conditions: for IC50: Vero
VAR isolate V68-59 = assay: organism not typed; type: cell-based, variola minor; conditions: Vero, read-out: IC50, VAR isolate V68-59
VAR isolate Shahzaman = assay: organism not typed; type: cell-based, variola; conditions: Vero, read-out: IC50, VAR isolate Shahzaman
VAR isolate Horn = assay: organism not typed; type: cell-based, variola; conditions: Vero, read-out: IC50, VAR isolate Horn
VAR isolate V70-46 = assay: organism not typed; type: cell-based, variola; conditions: Vero, read-out: IC50, VAR isolate V70-46
[7] = tested on: VAR-GAR (1966 Brazil Garcia isolate of VAR minor); assay: organism not typed; type: cell-based, variola minor; conditions: for IC50: Vero
Vero cells = conditions: African green monkey
VAR isolate V77-1605 = assay: organism not typed; type: cell-based, variola; conditions: Vero, read-out: IC50, VAR isolate V77-1605
VAR isolate 7125 = assay: organism not typed; type: cell-based, variola; conditions: Vero, read-out: IC50, VAR isolate 7125
VAR isolate Somalia = assay: organism not typed; type: cell-based, variola; conditions: Vero, read-out: IC50, VAR isolate Somalia
VAR isolate K1629 = assay: organism not typed; type: cell-based, variola; conditions: Vero, read-out: IC50, VAR isolate K1629
all VAR isolates tested = assay: organism not typed; type: cell-based, variola; conditions: Vero, read-out: IC50, VAR mean
VAR isolate V72-119 = assay: organism not typed; type: cell-based, variola; conditions: Vero, read-out: IC50, VAR isolate V72-119
LLC-MK2 cells = conditions: rhesus monkey
[8] = tested on: MPX Zaire (V79-1-005-Scab); assay: organism not typed; type: cell-based, monkeypox
VAR isolate V74-227 = assay: organism not typed; type: cell-based, variola; conditions: Vero, read-out: IC50, VAR isolate V74-227
[9] = tested on: VAR-GAR (1966 Brazil Garcia isolate of VAR minor); assay: organism not typed; type: cell-based, variola minor
CPX Brighton [10] = assay: organism not typed; type: cell-based, cowpox
VAR isolate V73-175 = assay: organism not typed; type: cell-based, variola; conditions: Vero, read-out: IC50, VAR isolate V73-175

Nc1ccn(C[C@@H](CO)OCP(=O)(O)O)c(=O)n1 [Cidofovir, 1-[(S)-3-hydroxy-2-(phosphonomethoxy)-propyl]cytosine]
inhibition of VAC replication in vitro (VAC): inhibit VAC replication in vitro | IC50 (VAR isolate Jee): 10 µg/mL (≈ 35.8 µM) | IC50 (VAR isolate 102): 23 µg/mL (≈ 82.4 µM) | Therapeutic index (TI) VAR-YAM LLC-MK2 [1]: 37.0 | IC50 ([1]; LLC-MK2, read-out: IC50 VAR-YAM LLC-MK2): 2.7 µg/mL (≈ 9.67 µM) | IC50 (VAR isolate Harper): 28 µg/mL (≈ 100 µM) | Therapeutic index (TI) MPX Vero [2]: 14.9 | IC50 ([2]; read-out: IC50, MPX): 11 µg/mL (≈ 39.4 µM) | IC50 ([2]; read-out: IC50 MPX Vero): 6.7 µg/mL (≈ 24 µM) | IC50 (VAR isolate Iran 2602): 8 µg/mL (≈ 28.7 µM) | IC50 (VAR isolate Minn124): 5 µg/mL (≈ 17.9 µM) | Therapeutic index (TI) VAR-YAM Vero [3]: 8.3 | IC50 ([3]; read-out: IC50, VAR isolate Yamada): 13 µg/mL (≈ 46.6 µM) | IC50 ([3]; read-out: IC50 VAR-YAM Vero): 12.1 µg/mL (≈ 43.3 µM) | IC50 (VAR isolate Eth17): 11 µg/mL (≈ 39.4 µM) | IC50 (VAR isolate Rafig Lahore): 12 µg/mL (≈ 43 µM) | Therapeutic index (TI) VAR-BSH Vero [4]: 10.5 | IC50 ([4]; 120 h, read-out: apparent IC50): 10.9 µg/mL (≈ 39 µM) | IC50 ([4]; read-out: IC50, VAR isolate Bangladesh): 17 µg/mL (≈ 60.9 µM) | IC50 ([4]; read-out: IC50 VAR-BSH Vero): 9.5 µg/mL (≈ 34 µM) | IC50 (VAR isolate V70-222): 12 µg/mL (≈ 43 µM) | activity in vivo, CPX mouse model (CPX): active in vivo | IC50 (VAR isolate 7124): 20 µg/mL (≈ 71.6 µM) | Therapeutic index (TI) VAC LLC-MK2 (VAC Copenhagen): 23.3 | IC50 (VAC Copenhagen; Orthopoxvirus vaccinia, LLC-MK2, read-out: IC50 VAC LLC-MK2): 4.3 µg/mL (≈ 15.4 µM) | TI against the panel of viruses [5]: 18.2 | IC50 ([5]; read-out: mean IC50 against the panel of viruses): 5.5 ± 0.95 µg/mL (≈ 19.7 µM) | IC50 (VAR isolate Higgins): 14 µg/mL (≈ 50.1 µM) | Therapeutic index (TI) CPX Vero (CPX Brighton [6]): 13.3 | IC50 (CPX Brighton [6]; read-out: IC50, CPX): 13 µg/mL (≈ 46.6 µM) | IC50 (CPX Brighton [6]; read-out: IC50 CPX Vero): 7.5 µg/mL (≈ 26.9 µM) | IC50 (VAR isolate V68-59): 13 µg/mL (≈ 46.6 µM) | IC50 (VAR isolate Shahzaman): 11 µg/mL (≈ 39.4 µM) | IC50 (VAR isolate Horn): 11 µg/mL (≈ 39.4 µM) | IC50 (VAR isolate V70-46): 7 µg/mL (≈ 25.1 µM) | Therapeutic index (TI) VAR-GAR Vero [7]: 22.2 | IC50 ([7]; read-out: IC50, VAR isolate Garcia): 7 µg/mL (≈ 25.1 µM) | IC50 ([7]; read-out: IC50 VAR-GAR Vero): 4.5 µg/mL (≈ 16.1 µM) | Cytotoxicity TC50 Vero (Vero cells): >100 µg/mL | IC50 (VAR isolate V77-1605): 19 µg/mL (≈ 68.1 µM) | IC50 (VAR isolate 7125): 12 µg/mL (≈ 43 µM) | IC50 (VAR isolate Somalia): 7 µg/mL (≈ 25.1 µM) | IC50 (VAR isolate K1629): 17 µg/mL (≈ 60.9 µM) | IC50 (all VAR isolates tested): 12 ± 1 µg/mL (≈ 43 µM) | IC50 (VAR isolate V72-119): 10 µg/mL (≈ 35.8 µM) | Cytotoxicity TC50 LLC-MK2 (LLC-MK2 cells): >100 µg/mL | Therapeutic index (TI) MPX LLC-MK2 [8]: 27.0 | IC50 ([8]; LLC-MK2, read-out: IC50 MPX LLC-MK2): 3.7 µg/mL (≈ 13.3 µM) | IC50 (VAR isolate V74-227): 10 µg/mL (≈ 35.8 µM) | Therapeutic index (TI) VAR-GAR LLC-MK2 [9]: 40.0 | IC50 ([9]; LLC-MK2, read-out: IC50 VAR-GAR LLC-MK2): 2.5 µg/mL (≈ 8.95 µM) | Therapeutic index (TI) CPX LLC-MK2 (CPX Brighton [10]): 83.3 | IC50 (CPX Brighton [10]; LLC-MK2, read-out: IC50 CPX LLC-MK2): 1.2 µg/mL (≈ 4.3 µM) | IC50 (VAR isolate V73-175): 12 µg/mL (≈ 43 µM)

— article PMC9533837 (Antiviral Research, 2003)
